Measurements as given in patent publication US20230002446A1, “ANTI-INFLAMMATORY AGENTS” (The University of Sydney, priority 2019, published 2023).
Where a SMILES comes first, the peptide text is derived from it. [ ]: non-standard residue; d: D form. AEEA = NCCOCCOCC(=O)O

Columns and labels:
C57BL/6 mice = experiment: T-cell subsets by flow cytometry in imiquimod-induced psoriasis model; type: in vivo
Description: FIG. 11. RP23 treatment reduces TCRαβ^+ T-cells in the back skin and increases CD4^+ T-regulatory cells in the lymph nodes of mice in an imiquimod-induced psoriasis model. C57BL/6 female mice received PBS or RP23 injection at day −1, then Aldara cream (5% imiquimod, 57.5 mgs) was applied daily (days 0-4) to the backs to induce psoriasis. At day 15, skin and inguinal lymph nodes were analysed by flow cytometry to quantitate (A) T-cell subsets as a proportion of total leukocytes (CD45^+) in the psoriatic back skin, (B) number of CD3^+CD4^+ TCRαβ T-cells in the skin draining lymph nodes (inguinal), with transcription factor staining, to identify cells with a regulatory phenotype (FoxP3^+). Data are the means+/−SEM (n=4-5). Statistical significance was determined by multiple t-tests, *p<0.05.
C57BL/6 female mice received PBS or RP23 injection at day −1, then Aldara cream (5% imiquimod, 57.5 mgs) was applied daily (days 0-4) to the backs of mice to induce psoriasis. At day 15, skin and inguinal lymph nodes were analysed by flow cytometry to quantitate T-cell subsets as a proportion of total leukocytes (CD45+) in the psoriatic back skin, (FIG. 11A).
CD3+CD4+ TCRαβ T-cells in the skin draining lymph nodes (inguinal) were phenotyped by transcription factor staining and flow cytometry to identify cells with a regulatory phenotype (i.e., FoxP3+).

[1] = system: primary murine splenic dendritic cells; experiment: LPS-stimulated murine splenocytes, DC activation (flow cytometry); type: cell-based
Description: FIG. 5—Peptide administration reduces the activation of pro-inflammatory DCs and macrophages. (A) C57BL/6 murine splenocytes were stimulated with LPS±peptide RP23 (SEQ ID NO:12) and expression of activation markers on DCs was assessed by flow cytometry. (B) Bone marrow derived murine macrophages were incubated with peptide RP23 (30 mins) and stimulated with LPS (overnight). Positive controls were stimulated with LPS only. Negative controls were unstimulated. Inflammatory cytokine production was assessed by ELISA. (C) CD14+ cells were isolated from human blood and differentiated into macrophages by culturing with human serum. Cells were incubated with peptide RP23 (30 mins), then stimulated overnight with LPS (left panel) or imiquimod (right panel). Inflammatory cytokine (IL-6 or IL-12/23) production was assessed by ELISA. Representative of 6 donors. Data are presented as mean±S.E.M. Statistical significance was determined by ANOVA with Dunnett's multiple comparison test, *p<0.05, **p<0.01, ***p<0.001.
Using an in vitro culture system, it was determined whether RP23 could suppress the activity of specific pro-inflammatory immune cells. […] The culture of murine bone marrow derived macrophages with RP23 led to reduced IL-6, MCP-1 and TNF release after LPS-stimulation (FIG. 5b). […]

[2] = system: full thickness human skin explants
Description: RP23^AF594 in a stock emulsion was applied topically to full thickness human skin explants and cultured for 24 hours. Frozen sections were analysed by fluorescence microscopy.
RP23^AF594 was formulated for topical application in an adapted stock emulsion consisting of dimethicone, liquid paraffin, 4-chloro-3-methylphenol, cetrimide and octadecan-1-ol. This was applied topically (7 mg/cm^2, 10 nmol RP23) to full thickness human skin explants and cultured for 24 hours. Frozen sections were prepared for and analysed by fluorescence microscopy.

CSCC[C@H](NC(=O)COCCOCCNC(=O)[C@H](CCCCN)NC(=O)[C@H](CCCCN)NC(=O)[C@H](CCCCN)NC(=O)[C@@H](N)CCCCN)C(=O)N[C@H](C(=O)N1CCC[C@H]1C(=O)NCC(=O)N[C@H](C(=O)N[C@@H](CCC(N)=O)C(=O)N[C@@H](CO)C(=O)N1CCC[C@H]1C(=O)N[C@@H](Cc1ccccc1)C(=O)N[C@@H](Cc1ccccc1)C(=O)N[C@@H](CC(C)C)C(=O)N[C@@H](CC(C)C)C(=O)N[C@@H](CC(C)C)C(=O)N[C@@H](CC(C)C)C(=O)N[C@@H](CC(C)C)C(=O)N[C@H](C(=O)N[C@H](C(=O)N[C@@H](CC(C)C)C(=O)N[C@H](C(=O)N[C@H](C(=O)N[C@H](C(=O)O)C(C)C)C(C)C)[C@@H](C)O)C(C)C)[C@@H](C)O)[C@@H](C)O)[C@@H](C)O [RP23] (H-KKKK[AEEA]MTPGTQSPFFLLLLLTVLTVV-OH)
TCRαβ+ T-cells in the skin of psoriatic mice (C57BL/6 mice; FIG. 11A): reduction in TCRαβ+ T-cells
number of FoxP3-expressing CD3+CD4+ TCRαβ T-cells in skin draining lymph nodes (C57BL/6 mice; inguinal lymph nodes, day 15, with or without T-bet or Rorγt): significant increase
proportion of total CD4+ and CD8+ T-cells in the back skin (C57BL/6 mice; injection day -1, day 15, proportion of CD45+ leukocytes): reduced the proportion of total CD4+ and CD8+ T-cells
expression of surface activation markers ([1]; LPS stimulation): reduced
secretion of inflammatory chemokines ([1]; data not shown): reduced the secretion of inflammatory chemokines
penetration of human skin when topically applied [2]: able to penetrate the stratum corneum and basement membrane
